Measured values from US20070172957A1, “Methods of identifying anti-inflammatory macrolides” (TAISHO PHARMACEUTICAL CO., LTD., priority 2004, published 2007).

Test system: genes predictive for the anti-inflammatory macrolide effect
Test: Genes statistically predictive of Clari response: differentially expressed with Clari but not the inactive macrolides MAA or Josa (Appendix E)
Assay type: cell-based
Conditions: pooled group mean
From the text: In the case of the above-mentioned (i) related to arachidonic acid biosynthesis, specifically, methods of the embodiment involve assaying whether a test macrolide alters biosynthesis of arachidonic acid, alters the expression or activities of enzymes involved in the biosynthesis or activation of arachidonic acid (e.g., arachidonic acid CoA synthetase, delta-6 desaturase, fatty acid elongase, and delta-5 desaturase, AA-related genes in Tables 2 and 3), or alters the expression of genes identified as predictive for the anti-inflammatory macrolide effect (Appendix E). Assays in which arachidonic acid or gene expression or enzymatic activity is detected can be carried out after contacting a cell with a test macrolide. Any cell line that secretes prostaglandin or produces arachidonic acid can be used. Epithelial and macrophages lines (e.g., A549 or THP-1) are suitable for this purpose; other cell lines can be identified by carrying out assays such as those described in the specific Examples, below. Alternatively, screening assays can be carried out after adding a test macrolide to an in vitro cell system (e.g., a cellular extract or liver microsome preparation) or an in vitro enzyme assay system.

## CC[C@H]1OC(=O)[C@H](C)[C@@H](O[C@H]2C[C@@](C)(OC)[C@@H](O)[C@H](C)O2)[C@H](C)[C@@H](O[C@@H]2O[C@H](C)C[C@H](N(C)C)[C@H]2O)[C@](C)(O)C[C@@H](C)/C(=N\OCOCCOC)[C@H](C)[C@@H](O)[C@]1(C)O [roxithromycin]
SpotID 46633
  mean group, FLJ20699: 0.81
SpotID 46648
  mean group, ARHGAP1: 0.96
SpotID 46679
  mean group, KIAA1172: 0.92
SpotID 46825
  mean group, MKNK2: 1.12
SpotID 46843
  mean group, ARHGDIA: 0.93
SpotID 46896
  mean group, CDIPT: 1.01
SpotID 46923
  mean group, PACE: 1.09
SpotID 46935
  mean group, METAP2: 0.89
SpotID 46988
  mean group, EREG: 0.85
SpotID 47034
  mean group, C2orf3: 0.90
SpotID 47241
  mean group, NUBP1: 0.95
SpotID 47314
  mean group, EPOR: 1.14
SpotID 47352
  mean group, ADAM11: 1.10
SpotID 47366
  mean group, P4HB: 1.18
SpotID 47415
  mean group, CETN2: 1.18
SpotID 47418
  mean group, SNK: 0.82
SpotID 47432
  mean group, GCS1: 1.02
SpotID 47439
  mean group, DCTN1: 0.95
SpotID 47446
  mean group, RANBP1: 0.89
SpotID 47504
  mean group, MSH3: 0.99
SpotID 47522
  mean group, SERPINA1: 0.95
SpotID 47622
  mean group, TRAP1: 0.94
SpotID 47679
  mean group, NR4A2: 1.14
SpotID 47694
  mean group, HSPA9B: 0.95
SpotID 47754
  mean group, NBS1: 0.97
SpotID 47776
  mean group, POLA: 0.89
SpotID 47802
  mean group, GOT1: 0.94
SpotID 47811
  mean group, ENTPD6: 1.06
SpotID 47846
  mean group, SSI-1: 0.93
SpotID 47850
  mean group, PRLR: 0.99
SpotID 47935
  mean group, P4HA1: 1.18
SpotID 47950
  mean group, DNASE1L1: 1.03
SpotID 47973
  mean group, USF2: 1.05
SpotID 47987
  mean group, THBS1: 0.71
SpotID 47988
  mean group, RPN2: 1.02
SpotID 48004
  mean group, CUTL1: 1.02
SpotID 48026
  mean group, SRF: 1.03
SpotID 48137
  mean group, FRDA: 0.90
SpotID 48149
  mean group, SFRS7: 0.88
SpotID 48160
  mean group, ZAP3: 0.95
SpotID 48233
  mean group, MAPK12: 1.03
SpotID 48266
  mean group, GRB2: 1.04
SpotID 48301
  mean group, GCN5L1: 1.01
SpotID 48345
  mean group, CCT3: 1.03
SpotID 48365
  mean group, MAPK9: 0.94
SpotID 48411
  mean group, MGEA5: 1.13
SpotID 48415
  mean group, SERPINB1: 1.28
SpotID 48456
  mean group, DDC: 0.97
SpotID 48461
  mean group, BARD1: 0.86
SpotID 48486 (gene symbol not given)
  mean group, SpotID 48486: 0.94
SpotID 48500
  mean group, RPL13A: 0.92
SpotID 48521
  mean group, ARAF1: 0.98
SpotID 48530
  mean group, APLP2: 1.10
SpotID 48557
  mean group, NFE2L1: 1.06
SpotID 48620
  mean group, XBP1: 1.10
SpotID 48646
  mean group, SDCBP: 1.08
SpotID 48654
  mean group, FECH: 0.98
SpotID 48693
  mean group, HSPBP1: 0.91
SpotID 48707
  mean group, P4HA1: 1.18
SpotID 48717
  mean group, PPP3CB: 0.95
SpotID 48725
  mean group, IKKE: 0.94
SpotID 48732
  mean group, RALA: 1.06
SpotID 48747
  mean group, MAFB: 0.93
SpotID 48804
  mean group, KIAA0217: 0.88
SpotID 48921
  mean group, ITGAE: 0.97
SpotID 49006
  mean group, PRSS25: 1.14
SpotID 49007
  mean group, TM9SF2: 1.18
SpotID 49028
  mean group, BNIP3L: 1.20
SpotID 49117
  mean group, SERPINB1: 0.88
SpotID 49155
  mean group, ARTS-1: 0.86
SpotID 49169
  mean group, RRS1: 0.93
SpotID 49233
  mean group, APOE: 1.01
SpotID 49272
  mean group, TNFRSF10B: 1.08
SpotID 49314
  mean group, PPIB: 1.16
SpotID 49318
  mean group, YWHAH: 0.97
SpotID 49360
  mean group, TEB4: 0.94
SpotID 49374 (gene symbol not given)
  mean group, SpotID 49374: 1.03
SpotID 49435
  mean group, TRRAP: 0.92
SpotID 49446
  mean group, SRC: 1.14
SpotID 49490
  mean group, VTN: 0.94
SpotID 49514
  mean group, UBC: 1.09
SpotID 49524
  mean group, AP1G2: 0.92
SpotID 49577
  mean group, LOC54543: 1.02
SpotID 49606
  mean group, CSTF3: 1.07
SpotID 49618
  mean group, CLN2: 1.12
SpotID 49673
  mean group, BTN3A2: 1.11
SpotID 49679
  mean group, SERPINF1: 1.09
SpotID 49737
  mean group, CHAF1B: 0.88
SpotID 49767
  mean group, AD022: 1.10
SpotID 49787
  mean group, CYC1: 0.94
SpotID 49800
  mean group, AD022: 1.09
SpotID 49915
  mean group, ATP2B4: 1.06
SpotID 49947
  mean group, RFC1: 0.93
SpotID 50022
  mean group, HIF1A: 0.93
SpotID 50050
  mean group, NDUFA2: 1.02
SpotID 50079
  mean group, SCOP: 1.04
SpotID 50099
  mean group, CNOT3: 0.86
SpotID 50267
  mean group, IL10RB: 1.08
SpotID 50342
  mean group, IKKE: 1.08
SpotID 50349
  mean group, LOC51295: 0.84
SpotID 50351
  mean group, CFL1: 1.00
SpotID 50421
  mean group, GOCAP1: 1.10
SpotID 50511
  mean group, MGP: 0.98
SpotID 50513
  mean group, ARHC: 1.00
SpotID 50584
  mean group, BN51T: 1.07
SpotID 50590
  mean group, CKS2: 0.89
SpotID 50591 (gene symbol not given)
  mean group, SpotID 50591: 1.13
SpotID 50601
  mean group, SRP19: 1.06
SpotID 50645
  mean group, BET1: 1.01
SpotID 50736
  mean group, PRKDC: 0.92
SpotID 50738
  mean group, AD022: 1.10
